These results are taken from ChEMBL document CHEMBL1136289, “Synthesis and biological evaluation of thymine nucleosides fused with 3',4'-tetrahydrofuran ring” (Bioorg Med Chem Lett, 2003).

Converted amounts (≈) assume the structure as drawn. Some results are limits rather than exact numbers.

What all share (conditions): Homo sapiens
Test [1] deals with HeLa. As to the kind of experiment: Compound was evaluated for its inhibitory effect on the replication of encephalomyocarditis virus (EMCV) in HeLa cells. Format: functional, cell-based.
Test [2] has as its system MT4. As to the kind of experiment: Compound was evaluated for its inhibitory effect on the replication of HIV-2 (ROD) in MT-4 cells. Format: functional, cell-based.
For test [3], the system named is HeLa. Briefly: Compound was evaluated for its inhibitory effect on the replication of vesicular stomatitis virus (VSV) in HeLa cells. Format: functional, cell-based.
Test [4] deals with HeLa. As to the kind of experiment: Cytotoxicity against HeLa cells. The test is classed as functional.
The test system of test [5] is MT4. Briefly: Cytotoxicity against MT-4 cells. Format: functional.
For test [6], the system named is HeLa. Briefly: Compound was evaluated for its inhibitory effect on the replication of Coxsackie virus B3 (Cox. B3) in HeLa cells. Format: functional, cell-based.
Test [7] relates to MT4. As to the kind of experiment: Compound was evaluated for its inhibitory effect on the replication of HIV-1(IIIB) in MT-4 cells. The test is classed as functional, cell-based.

Take `Cc1cn(C2OC3(CO)COCC3C2O)c(=O)[nH]c1=O` (stereo unspecified): the EC50 (as a rule, the concentration at which the effect is half-maximal) with HeLa [1] was 100 µg/mL (≈ 352 µM); in the test on MT4 [2], greater than 0.54 µg/mL; with HeLa [3], 100 µg/mL (≈ 352 µM); with HeLa [6], 100 µg/mL (≈ 352 µM); in the test with MT4 [7], 95.8 µg/mL (≈ 337 µM). For the same compound, the CC50 (usually the concentration at which the toxic effect on the cells reaches its halfway point) worked out at 100 µg/mL (≈ 352 µM) in the test with HeLa [4] and 0.54 µg/mL (≈ 1.9 µM) with MT4 [5].
On to `Cc1cn(C2CC3COCC3(CO)O2)c(=O)[nH]c1=O` (stereo unspecified), for which the EC50 in the test on HeLa [1] is greater than 4.11 µg/mL; in the test on MT4 [2] it was greater than 100 µg/mL; in the test on HeLa [3], 3.45 µg/mL (≈ 12.9 µM); in the test with HeLa [6] it was greater than 4.11 µg/mL; in the test with MT4 [7] it was greater than 100 µg/mL. Besides, the CC50 is 4.11 µg/mL (≈ 15.3 µM) in the test with HeLa [4] and less than 0.8 µg/mL with MT4 [5].
Turning to `NC(=O)c1ncn([C@@H]2O[C@H](CO)[C@@H](O)[C@H]2O)n1` [RIBAVIRIN], the EC50 worked out at 20.9 µg/mL (≈ 85.7 µM) in the test with HeLa [1], 14.4 µg/mL (≈ 59 µM) in the test with HeLa [3] and 181 µg/mL (≈ 743 µM) in the test on HeLa [6]. Further, the midpoint of cytotoxicity with HeLa [4], the CC50, lay at 300 µg/mL (≈ 1230 µM).
As to `Cc1cn([C@H]2C[C@H](N=[N+]=[N-])[C@@H](CO)O2)c(=O)[nH]c1=O` [ZIDOVUDINE], the half-maximal effective concentration (EC50) was 0.01 µg/mL (≈ 0.0374 µM) in the test on MT4 [2] and 0.0012 µg/mL (≈ 0.00449 µM) in the test with MT4 [7]. In addition, the CC50 with MT4 [5] turned out to be 1.64 µg/mL (≈ 6.14 µM).
